We go through 2 compounds from patent publication US6541468B1, “Indolocarbazole derivatives useful for the treatment of neurodegenerative diseases and cancer” (Bayer Corporation, priority 1998, dated 2003).

Each structure is given as a SMILES string.

The melting point is the temperature, or range, at which the solid turns liquid. `O=C1NC(=O)c2c1c1c3ccccc3n3c1c1c2c2ccccc2n1C1CC3CC1=O` (centres unmarked) [Example 3, 9,12-Methano-1H-diindolo[1,2,3-fg:3′,2′,1′-kl]pyrrolo[3,4-I][1,6]benzodiazocine-1,3,10 (2H,9H)-trone, 11,12-dihydro]: the melting point was greater than 230 °C.

Consider `O=C1NC(=O)c2c1c1c3ccccc3n3c1c1c2c2ccccc2n1C1CC3[C@@H](O)[C@H]1O` [Example 1, 9,12-Methano-1H-diindolo[1,2,3-fg:3′,2′,1′-kl]pyrrolo[3,4-][1,6]benzodiazocine-1,3 (2H)-dione,9,10,11,12-tetrahydro-10,11-dihydroxy-(9α,10α,11α,12α)], for which the melting point is greater than 200 °C.
